Six molecules from ChEMBL document CHEMBL1122099, “Antiallergics: 3-(1H-tetrazol-5-yl)-4H-pyrimido[2,1-b]benzothiazol-4-ones” (1982) can be followed below.

Experiment [1] concerns Rattus norvegicus. In words: Tested for the antiallergic activity in rat passive cutaneous anaphylaxis (PCA) test; po. It counts as functional.
The subject of experiment [2] is Rattus norvegicus. In words: Percent inhibition at a concentration of 25 mg/kg in rat passive cutaneous anaphylaxis (PCA) test. Type of experiment: functional.
Experiment [3] has as its system Rattus norvegicus. In words: Percent inhibition at a concentration of 10.0 mg/kg in methacholine induced bronchospasm in rat. It counts as functional.
The subject of experiment [4] is Rattus norvegicus. In words: Percent inhibition at a concentration of 1.0 mg/kg in methacholine induced bronchospasm in rat. It counts as functional.
The species entered for experiment [5] is Rattus norvegicus. Put plainly: Tested for the bronchodilator activity by measuring inhibition of allergen induced bronchospasm in rat intra duodenally.
For experiment [6], the system named is Rattus norvegicus. In words: Percent inhibition at a concentration of 0.02 mg/kg in methacholine induced bronchospasm in rat intraduodenally. It counts as functional. Conditions: route intraduodenal.
The subject of experiment [7] is Rattus norvegicus. In words: Percent inhibition at a concentration of 0.1 mg/kg in methacholine induced bronchospasm in rat. Type of experiment: functional.

In the experiment with Rattus norvegicus [1], `COc1ccc2c(c1)sc1ncc(-c3nnn[nH]3)c(=O)n12` showed an ED50 of 1.9 mg/kg. On the same count and under the same terms, in the case of `Cc1cc(C)c2sc3ncc(-c4nnn[nH]4)c(=O)n3c2c1` it was 1.96 mg/kg. As to `Cc1cc2sc3ncc(-c4nnn[nH]4)c(=O)n3c2cc1C`, in the experiment with Rattus norvegicus [2], the inhibition in vivo at 25 mg/kg turned out to be 35%. Consider `N=c1c(-c2nnn[nH]2)cnc2sc3ccccc3n12`, for which the 50% effect level in the experiment with Rattus norvegicus [1] (ED50) was put at a dose of 8.1 mg/kg. The same measure, in the same setting: in the case of `O=C([O-])c1cc(=O)c2c(OCC(O)COc3cccc4oc(C(=O)[O-])cc(=O)c34)cccc2o1.[Na+].[Na+]` [CROMOLYN SODIUM] it was 0.3 mg/kg. With `O=c1c(-c2nnn[n-]2)cnc2sc3ccccc3n12.[K+]`, the ED50 in the experiment on Rattus norvegicus [1] was 0.08 mg/kg; in the experiment filed under Rattus norvegicus [5], 0.38 mg/kg. In the experiment on Rattus norvegicus [3], this molecule returned an inhibition in vivo at 10 mg/kg of 61%. Further, the inhibition in vivo at 1 mg/kg in the experiment with Rattus norvegicus [4] came out at 59.3%. For the same molecule, at 0.02 mg/kg the inhibition in vivo in the experiment with Rattus norvegicus [6] was 13.2%. Also, at 0.1 mg/kg the inhibition in vivo in the experiment on Rattus norvegicus [7] was 37.4%.
